Measurements: US8524744B2, “Arylamine ketones, their preparation methods, the pharmaceutical composition containing them and their use” (Institute of Mataria Medica, Chinese Academy of Medical …, priority 2004, dated 2013)
Structures can show the parent of a compound that is named as a salt.

Tested on: polymorphonuclear leucocytes from rat pleural cavity
Test: release of β-glucuronidase by polymorphonuclear leucocytes from rat pleural cavity in vitro (PAF as irritant)
Format: cell-based
Details: Dose 1 × 10^−4 mol · L^−1; Irritant 2 × 10^−7 mol · L^−1
Description: 1% carrageenan was injected into the right pleural cavity of Wistar rat to induce polymorphonuclear leucocytes. The cells was suspended in Dulbecoo's buffer at the concentration of 2.5×10^6 cells·ml^1. The fluid containing the compound or solvent and 250 μl of cells suspension were added in test tube and incubated in 37° C. waterbath for 15 min. Then 2.5 μl of cytochalasin B (1×10^−3 mol·L^−1) was added and the reaction was continued for 5 min. Then 2.5 μl of PAF (1×10^−4 mol·L^−1) was added and for another 5 min. The test tubes were put into ice bath to stop the reaction. The supernatant was isolated and used as the β-glucuronidase release fluid. 25 μl of the enzyme fluid, 25 μl of phenolphthalein-glucuronic acid (2.5 mmol·L^−1) and 100 μl of acetic acid buffer (0.1 mol·L^−1) were added into each well of 96-well plate which was placed into incubater and kept at 37° C.3 for 18 hr. 150 μl of NaOH (0.3 mol·L^−1) was added in each well to cease the reaction and the optical density was read at 550 nm.

First: CN1CCN(CCC(=O)C=Cc2ccc3c(c2)OCO3)CC1.Cl [Compound 52, 5-[(N4-Methyl)piperazyl]-1-(3,4-methylenedioxyphenyl)-1-penten-3-one hydrochloride]
Second: CCOC(=O)N1CCN(CCC(=O)C=Cc2ccc3c(c2)OCO3)CC1.Cl [Compound 32, 5-[(N4-Ethoxycarbonyl)piperazyl]-1-(3,4-methylenedioxyphenyl)-1-penten-3-one hydrochloride]
The “Inhibition (%) of β-glucuronidase release” value of the first is lower: 31.2% for the first, 46.1% for the second.

Same assay, conditions: Dose 1 × 10^−5 mol · L^−1; Irritant 1 × 10^−6 mol · L^−1

First: CC1CN(CCC(=O)C=Cc2ccc(Br)cc2)CC(C)O1.Cl (stereo not drawn) [Compound 39b, 5-(2,6-Dimethylmorpholinyl)-1-(4-bromophenyl)-1-penten-3-one hydrochloride]
Second: CC(CN1CCN(Cc2ccc3c(c2)OCO3)CC1)C(=O)C=Cc1ccc(Cl)cc1.Cl (stereo not drawn) [Compound 53, 5-[N4-(3,4-Methylenedioxy(benzyl)piperazyl)]-1-(4-chlorophenyl)-1-penten-4-methyl-3-one hydrochloride]
The “Inhibition (%) of β-glucuronidase release” value of the first is higher: 40.48% for the first, 37.82% for the second.

Going from `CCOC(=O)C1CCCN(CCC(=O)C=Cc2ccc(Cl)cc2)C1.Cl` (stereo not drawn) [Compound 13, 5-[(3-Ethoxycarbonyl)piperidyl]-1-(4-chloro)phenyl-1-penten-3-one hydrochloride] to `CCCOc1ccc(C=CC(=O)CCN2CCC(Cc3ccccc3)CC2)cc1.Cl` [Compound 22b, 5-[(4-Benzyl)piperidyl]-1-(4-propoxyphenyl)-1-penten-3-one hydrochloride], the “Inhibition (%) of β-glucuronidase release” value rises from 20.56% to 41.79%.

Compared with `CCOC(=O)C1CCN(CCC(=O)C=Cc2ccc(Cl)cc2Cl)CC1.Cl` [Compound 10, 5-[(4-Ethoxycarbonyl)piperidyl]-1-(2,4-dichlorophenyl)-1-penten-3-one hydrochloride], `CCOC(=O)C1CCCN(CCC(=O)C=Cc2ccc(OC)c(O)c2)C1.Cl` (stereo not drawn) [Compound 14, 5-[(3-Ethoxycarbonyl)piperidyl]-1-(3-hydroxy-4-methoxyphenyl)-1-penten-3-one hydrochloride] is lower in “Inhibition (%) of β-glucuronidase release” value: 51.07% for the first, 36.65% for the second.

First: COc1ccc(C=CC(=O)CCN2CCN(Cc3ccccc3)CC2)cc1.Cl [Compound 49, 5-[(N4-Benzyl)piperazyl]-1-(4-methoxyphenyl)-1-penten-3-one hydrochloride]
Second: Cl.O=C(C=Cc1ccc(Cl)cc1Cl)CCN1CCC(Cc2ccccc2)CC1 [Compound 23, 5-[(4-Benzyl)piperidyl]-1-(2,4-dichlorophenyl)-1-penten-3-one hydrochloride]
The “Inhibition (%) of β-glucuronidase release” value of the first is higher: 43.19% for the first, 32.27% for the second.

Compared with `CCOC(=O)C1CCN(CCC(=O)C=Cc2cc(OC)c(OC)c(OC)c2)CC1.Cl` [Compound 6, 5-[(4-Ethoxycarbonyl)piperidyl]-1-(3,4,5-trimethoxyphenyl)-1-penten-3-one hydrochloride], `CCCCOc1ccc(C=CC(=O)CCN2CCC(Cc3ccccc3)CC2)cc1.Cl` [Compound 22, 5-[(4-Benzyl)piperidyl]-1-(4-butoxyphenyl)-1-penten-3-one hydrochloride] is higher in “Inhibition (%) of β-glucuronidase release” value: 39.53% for the first, 69.00% for the second.

Going from “5-[(N4-Ethoxycarbonyl)piperazyl]-1-(4-trifluoromethylphenyl)-1-penten-3-one hydrochloride [Compound 29]” to `COc1ccc(C=CC(=O)CCN2CC(C)OC(C)C2)cc1.Cl` (stereo not drawn) [Compound 39c, 5-(2,6-Dimethylmorpholinyl)-1-(4-methoxyphenyl)-1-penten-3-one hydrochloride], the “Inhibition (%) of β-glucuronidase release” value rises from 22.22% to 28.66%.

With `CCOc1cc(C=CC(=O)CCN2CCN(Cc3ccc4c(c3)OCO4)CC2)ccc1OC.Cl` [Compound 55, 5-[N4-(3,4-Methylenedioxy(benzyl)piperazyl)]-1-(3-ethoxy-4-methoxy-phenyl)-1-penten-3-one hydrochloride] the “Inhibition (%) of β-glucuronidase release” value was 27.24%.

Same assay, conditions: Dose 1 × 10^−5 mol · L^−1; Irritant 1 × 10^−7 mol · L^−1

For `CCOC(=O)C1CCN(CCC(=O)C=Cc2ccc(O)c(OC)c2)CC1.Cl` [Compound 8, 5-[(4-Ethoxycarbonyl)piperidyl]-1-(3-methoxy-4-hydroxyphenyl)-1-penten-3-one hydrochloride], the “Inhibition (%) of β-glucuronidase release” value was 158.42%.

Same assay, conditions: Dose 1 × 10^−5 mol · L^−1; Irritant 2 × 10^−7 mol · L^−1

For `Cc1ccc(C=CC(=O)CCN2CCC(Cc3ccccc3)CC2)cc1.Cl` [Compound 19, 5-[(4-benzyl)piperidyl]-1-(4-methylphenyl)-1-penten-3-one hydrochloride], the “Inhibition (%) of β-glucuronidase release” value was 79.01%.

Same assay, conditions: Dose 2 × 10^−6 mol · L^−1; Irritant 1 × 10^−7 mol · L^−1

Compared with `CCOC(=O)C1CCN(CCC(=O)C=Cc2ccc(C#N)cc2)CC1.Cl` [Compound 2, 5-[(4-Ethoxycarbonyl)piperidyl]-1-(4-cyanophenyl)-1-penten-3-one hydrochloride], `CCOC(=O)C1CCCN(CCC(=O)C=Cc2ccc(Cl)cc2Cl)C1.Cl` (stereo not drawn) [Compound 16, 5-[(3-Ethoxycarbonyl)piperidyl]-1-(2,4-dichlorophenyl)-1-penten-3-one hydrochloride] is lower in “Inhibition (%) of β-glucuronidase release” value: 126.36% for the first, 84.38% for the second.

Same assay, conditions: rat polymorphonuclear leucocytes

For `CCOC(=O)C1CCCN(CCC(=O)C=Cc2ccc(Cl)cc2Cl)C1.Cl` (stereo not drawn) [Compound 16, 5-[(3-Ethoxycarbonyl)piperidyl]-1-(2,4-dichlorophenyl)-1-penten-3-one hydrochloride], the IC50 was 22.4 nM.

Tested on: not given
Test: not given
Details: not given

First: COc1ccc(C=CC(=O)CCN2CC(C)OC(C)C2)cc1O (stereo not drawn) (as salt: hydrochloride) [Compound 36, 5-(2,6-Dimethylmorpholinyl)-1-(3-hydroxy-4-methoxyphenyl)-1-penten-3-one hydrochloride]
Second: CCOc1cc(C=CC(=O)CCN2CC(C)OC(C)C2)ccc1O (stereo not drawn) (as salt: hydrochloride) [Compound 37, 5-(2,6-Dimethylmorpholinyl)-1-(3-ethoxy-4-hydroxyphenyl)-1-penten-3-one hydrochloride]
The melting point of the first is lower: 194 to 196 °C for the first, 198 to 201 °C for the second.

First: O=C(C=Cc1ccc(C(F)(F)F)cc1)CCN1CCC(Cc2ccccc2)CC1 (as salt: hydrochloride) [Compound 20, 5-[(4-Benzyl)piperidyl]-1-(4-trifluoromethylphenyl)-1-penten-3-one hydrochloride]
Second: COc1ccc(C=CC(=O)CCN2CCC(Cc3ccccc3)CC2)cc1 (as salt: hydrochloride) [Compound 22a, 5-[(4-Benzyl)piperidyl]-1-(4-methoxyphenyl)-1-penten-3-one hydrochloride]
The melting point of the first is lower: 175 to 179 °C for the first, 180 to 184 °C for the second.

In the case of `CCOC(=O)C1CCN(CCC(=O)/C=C/c2ccc(Cl)cc2)CC1` (as salt: hydrochloride) [Compound 3, 5-[(4-Ethoxycarbonyl)piperidyl]-1-(4-chlorophenyl)-1-penten-3-one hydrochloride], the melting point is reported as 172 to 174 °C.

Tested on: cutaneous vascular permeability in mice induced by PAF
Test: increase of cutaneous vascular permeability in mice induced by PAF
Format: in vivo, mouse
Details: orally, 50 mg·kg^−1, Kunming mice
Description: Kunming mice (male, 18-22 g) were randomly divided into two groups (treatment and control) with 10 animals for each group. The animals were orally administrated with the compounds or solvent, respectively. 1 hr later, 0.25 ml of 1% evans blue dye was injected into the tail vein. After 10 min, 0.1 ml of PAF (1×10^−8 mol·L^−1) was intracutaneously injected into the dorsal skin shaved. 1 hr later, the animals were sacrificed by cervical vertebra displacement. The skin with blue spot was cut off. The evans blue dye was extracted by 0.8 ml of mixed solution of acetone and normal saline (7:3). The supernatant was transferred into the 96-well plate. The optical density was measured at 620 nm.

With `CCOC(=O)C1CCCN(CCC(=O)C=Cc2ccc(Cl)cc2Cl)C1.Cl` (stereo not drawn) [Compound 16, 5-[(3-Ethoxycarbonyl)piperidyl]-1-(2,4-dichlorophenyl)-1-penten-3-one hydrochloride] the “Inhibition (%) of increase of cutaneous vascular permeability” value was 48.09%.

Tested on: mouse ear edema induced by croton oil
Test: mouse ear edema induced by croton oil
Format: in vivo
Details: orally, 50 mg·kg^−1, Kunming mice
Description: Kuming mice (male, 18-22 g) were randomly divided into two groups (treatment and control) with 10 animals for each group. The animals were orally administrated with compounds or solvent, respectively. 1 hr later, 50 μl of 2% croton oil was smeared on the two sides of mouse left ear. After 4 hr the mice were sacrificed by cervical vertebra displacement. The two ears were cut off and the central sections were excised using a punch with a diameter of 8 mm and weighed. Edema was quantified as the weight difference between the two sections.

With `CCOC(=O)C1CCCN(CCC(=O)C=Cc2ccc(Cl)cc2Cl)C1.Cl` (stereo not drawn) [Compound 16, 5-[(3-Ethoxycarbonyl)piperidyl]-1-(2,4-dichlorophenyl)-1-penten-3-one hydrochloride] the “Inhibition (%) of mouse ear edema” value was 29.05%.
